Measurements published in patent publication US11446287B2, “Compounds and methods for EP300 or CBP modulation and indications therefor” (Opna Immuno-Oncology SA, priority 2019, dated 2022).

The molecules below were run against T1, Recombinant human BRD4 containing dual bromodomains (BRD4-BD12 (1-477)) (Homo sapiens, UniProt O60885) (assay: BRD4 Alphascreen binding assay).
T1 construct: Recombinant human BRD4 containing dual bromodomains (BRD4-BD12 (1-477)); made in house; host or cells: E. coli BL21-CodonPlus (DE3), modified pET vector
In short: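 His-tagged human BRD4 tandem bromodomains (1-477, E. coli) incubated 1 h at room temperature with biotinylated tetra-acetylated H4 (1-21) peptide and compound in HEPES pH 7.5 buffer with 2 mM DTT. AlphaScreen signal read 30 min after adding beads (7.5 μg/ml); IC50 from four-parameter fit after normalization to controls.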
In the case of `CCOc1c(F)c(C(=O)O)c(F)c(OCC)c1-c1cn(-c2ccc(F)cc2F)c2ncc(-c3c(C)noc3C)cc12` [P-0296, 4-(1-(2,4-difluorophenyl)-5-(3,5-dimethylisoxazol-4-yl)-1H-pyrrolo[2,3-b]pyridin-3-yl)-3,5-diethoxy-2,6-difluorobenzoic acid], the IC50 is reported as 8 to 1000 µM.
`CCOc1cc(C(=O)O)c(F)c(OCC)c1-c1cn(-c2ccc(F)cc2F)c2ncc(-c3c(C)noc3C)cc12` [P-0297, 4-(1-(2,4-difluorophenyl)-5-(3,5-dimethylisoxazol-4-yl)-1H-pyrrolo[2,3-b]pyridin-3-yl)-3,5-diethoxy-2-fluorobenzoic acid] showed an IC50 of 8 to 1000 µM.
`Cc1noc(C)c1-c1cnc2c(-c3ccccc3)cn(-c3c(OCC(F)(F)F)cc(C(=O)O)cc3OCC(F)(F)F)c2c1` [P-0298, 4-(6-(3,5-dimethylisoxazol-4-yl)-3-phenyl-1H-pyrrolo[3,2-b]pyridin-1-yl)-3,5-bis(2,2,2-trifluoroethoxy)benzoic acid] gave an IC50 of 1 to 8 µM.
`Cc1noc(C)c1-c1cnc2c(c1)c(-c1ccc(C(=O)O)cc1OC(C)C)cn2-c1cnn(CC(C)(C)O)c1` [P-0299, 4-(5-(3,5-dimethylisoxazol-4-yl)-1-(1-(2-hydroxy-2-methylpropyl)-1H-pyrazol-4-yl)-1H-pyrrolo[2,3-b]pyridin-3-yl)-3-isopropoxybenzoic acid] was tested, and the IC50 was 1 to 8 µM.
In the case of `Cc1noc(C)c1-c1cnc2c(c1)c(-c1ccc(C(=O)O)cc1OC(C)C)cn2-c1cnc(N2CCC2)nc1` [P-0300, 4-(1-(2-(azetidin-1-yl)pyrimidin-5-yl)-5-(3,5-dimethylisoxazol-4-yl)-1H-pyrrolo[2,3-b]pyridin-3-yl)-3-isopropoxybenzoic acid], the IC50 is reported as 8 to 1000 µM.
Molecule `Cc1noc(C)c1-c1cnc2c(c1)c(-c1ccc(C(=O)O)cc1OC(C)C)cn2[C@H]1CCOC1` [P-0301, (S)-4-(5-(3,5-dimethylisoxazol-4-yl)-1-(tetrahydrofuran-3-yl)-1H-pyrrolo[2,3-b]pyridin-3-yl)-3-isopropoxybenzoic acid] has an IC50 of 8 to 1000 µM.
`Cc1noc(C)c1-c1cnc2c(c1)c(-c1ccc(S(C)(=O)=O)cc1OC(C)C)cn2-c1ccccc1` [P-0302, 4-(3-(2-isopropoxy-4-(methylsulfonyl)phenyl)-1-phenyl-1H-pyrrolo[2,3-b]pyridin-5-yl)-3,5-dimethylisoxazole] gave an IC50 of 8 to 1000 µM.
Molecule `CCCn1nc(C(=O)O)c(N)c1-c1cn(-c2ccc(F)cc2F)c2ncc(-c3c(C)noc3C)cc12` [P-0303, 4-amino-5-(1-(2,4-difluorophenyl)-5-(3,5-dimethylisoxazol-4-yl)-1H-pyrrolo[2,3-b]pyridin-3-yl)-1-propyl-1H-pyrazole-3-carboxylic acid] has an IC50 of 8 to 1000 µM.
For `CCCn1nc(C(=O)O)c(NCC)c1-c1cn(-c2ccc(F)cc2F)c2ncc(-c3c(C)noc3C)cc12` [P-0304, 5-(1-(2,4-difluorophenyl)-5-(3,5-dimethylisoxazol-4-yl)-1H-pyrrolo[2,3-b]pyridin-3-yl)-4-(ethylamino)-1-propyl-1H-pyrazole-3-carboxylic acid], the IC50 was 1 to 8 µM.
Work on `Cc1nnn(C)c1-c1cnc2c(c1)c(-c1ccc(C(=O)O)cc1OC(F)(F)F)cn2CC/C=C/C1CC1` [P-0305, (E)-4-(1-(4-cyclopropylbut-3-en-1-yl)-5-(1,4-dimethyl-1H-1,2,3-triazol-5-yl)-1H-pyrrolo[2,3-b]pyridin-3-yl)-3-(trifluoromethoxy)benzoic acid] yielded an IC50 of 8 to 1000 µM.
`Cc1noc(C)c1-c1cnc2c(c1)c(-c1ccc(C(=O)O)cc1OCC(F)F)cn2-c1ccncc1Cl` [P-0306, 4-(1-(3-chloropyridin-4-yl)-5-(3,5-dimethylisoxazol-4-yl)-1H-pyrrolo[2,3-b]pyridin-3-yl)-3-(2,2-difluoroethoxy)benzoic acid] gave an IC50 of 8 to 1000 µM.
With `Cc1noc(C)c1-c1cnc2c(c1)c(-c1ccc(C(=O)O)cc1OC(F)(F)F)cn2-c1ccccc1Cl` [P-0307, 4-(1-(2-chlorophenyl)-5-(3,5-dimethylisoxazol-4-yl)-1H-pyrrolo[2,3-b]pyridin-3-yl)-3-(trifluoromethoxy)benzoic acid] the IC50 was 1 to 8 µM.
Molecule `Cc1noc(C)c1-c1cnc2c(c1)c(-c1ccc(C(=O)O)cc1OC(F)(F)F)cn2-c1ccccc1C1CC1` [P-0308, 4-(1-(2-cyclopropylphenyl)-5-(3,5-dimethylisoxazol-4-yl)-1H-pyrrolo[2,3-b]pyridin-3-yl)-3-(trifluoromethoxy)benzoic acid] has an IC50 of 1 to 8 µM.
`Cc1noc(C)c1-c1cnc2c(c1)c(-c1ccc(C(=O)O)cc1OC(F)(F)F)cn2-c1ccccc1C#N` [P-0309, 4-(1-(2-cyanophenyl)-5-(3,5-dimethylisoxazol-4-yl)-1H-pyrrolo[2,3-b]pyridin-3-yl)-3-(trifluoromethoxy)benzoic acid] gave an IC50 of 8 to 1000 µM.
Molecule `Cc1cc(C#N)ccc1-n1cc(-c2ccc(C(=O)O)cc2OC(F)(F)F)c2cc(-c3c(C)noc3C)cnc21` [P-0310, 4-(1-(4-cyano-2-methylphenyl)-5-(3,5-dimethylisoxazol-4-yl)-1H-pyrrolo[2,3-b]pyridin-3-yl)-3-(trifluoromethoxy)benzoic acid] has an IC50 of 1 to 8 µM.
Molecule `COc1ccc(-n2cc(-c3ccc(C(=O)O)cc3OC(F)(F)F)c3cc(-c4c(C)noc4C)cnc32)c(F)c1` [P-0311, 4-(5-(3,5-dimethylisoxazol-4-yl)-1-(2-fluoro-4-methoxyphenyl)-1H-pyrrolo[2,3-b]pyridin-3-yl)-3-(trifluoromethoxy)benzoic acid] has an IC50 of 1 to 8 µM.
Work on `C=C(C)c1ccccc1-n1cc(-c2ccc(C(=O)O)cc2OC(F)(F)F)c2cc(-c3c(C)noc3C)cnc21` [P-0312, 4-(5-(3,5-dimethylisoxazol-4-yl)-1-(2-(prop-1-en-2-yl)phenyl)-1H-pyrrolo[2,3-b]pyridin-3-yl)-3-(trifluoromethoxy)benzoic acid] yielded an IC50 of 8 to 1000 µM.
With `Cc1noc(C)c1-c1cnc2c(c1)c(-c1ccc(C(=O)O)cc1OC(F)(F)F)cn2-c1ccc(C#N)cc1` [P-0313, 4-(1-(4-cyanophenyl)-5-(3,5-dimethylisoxazol-4-yl)-1H-pyrrolo[2,3-b]pyridin-3-yl)-3-(trifluoromethoxy)benzoic acid] the IC50 was 1 to 8 µM.
In the case of `Cc1noc(C)c1-c1cnc2c(c1)c(-c1ccc(C(=O)O)cc1OC(F)(F)F)cn2-c1ccc(C(C)(C)O)cc1` [P-0314, 4-(5-(3,5-dimethylisoxazol-4-yl)-1-(4-(2-hydroxypropan-2-yl)phenyl)-1H-pyrrolo[2,3-b]pyridin-3-yl)-3-(trifluoromethoxy)benzoic acid], the IC50 is reported as 0.0001 to 1 µM.
`Cc1noc(C)c1-c1cnc2c(c1)c(-c1ccc(C(=O)O)cc1OC(F)(F)F)cn2-c1ccsc1` [P-0315, 4-(5-(3,5-dimethylisoxazol-4-yl)-1-(thiophen-3-yl)-1H-pyrrolo[2,3-b]pyridin-3-yl)-3-(trifluoromethoxy)benzoic acid] was tested, and the IC50 was 0.0001 to 1 µM.
